Assay results as given in the NIST ThermoML archive (doi:10.1021/je7001368).

Assay: mn = molality of the nth substance listed, in mol/kg
Conditions: 101 kPa, Liquid

O=C([O-])CC(O)(CC(=O)[O-])C(=O)[O-].[K+].[K+].[K+] [potassium citrate] + O
Conditions	mass density [kg/m3]	speed of sound [m/s]
288.15 K, m1 = 0.0185	1002.99	1470.8
288.15 K, m1 = 0.0304	1005.44	1473.4
288.15 K, m1 = 0.031	1005.55	1473.5
288.15 K, m1 = 0.0558	1010.5	1478.6
288.15 K, m1 = 0.0899	1017.35	1485.7
288.15 K, m1 = 0.1258	1024.33	1493.8
288.15 K, m1 = 0.1931	1037.25	1506.5
288.15 K, m1 = 0.2653	1050.77	1519.9
288.15 K, m1 = 0.3412	1064.51	1534.3
288.15 K, m1 = 0.4565	1084.71	1556.7
288.15 K, m1 = 0.5796	1105.19	1578.4
288.15 K, m1 = 0.7446	1131.73	1608.1
293.15 K, m1 = 0.0185	1002.05	1486.7
293.15 K, m1 = 0.0304	1004.5	1489.1
293.15 K, m1 = 0.031	1004.61	1489.3
293.15 K, m1 = 0.0558	1009.51	1494.3
293.15 K, m1 = 0.0899	1016.3	1501.1
293.15 K, m1 = 0.1258	1023.23	1509
293.15 K, m1 = 0.1931	1036.06	1521.2
293.15 K, m1 = 0.2653	1049.48	1534.2
293.15 K, m1 = 0.3412	1063.13	1548.1
293.15 K, m1 = 0.4565	1083.21	1569.7
293.15 K, m1 = 0.5796	1103.58	1590.6
293.15 K, m1 = 0.7446	1129.91	1619.4
298.15 K, m1 = 0.0185	1000.87	1500.8
298.15 K, m1 = 0.0304	1003.29	1503.2
298.15 K, m1 = 0.031	1003.4	1503.3
298.15 K, m1 = 0.0558	1008.27	1508.1
298.15 K, m1 = 0.0899	1015.02	1514.7
298.15 K, m1 = 0.1258	1021.9	1522.4
298.15 K, m1 = 0.1931	1034.64	1534.3
298.15 K, m1 = 0.2653	1047.99	1546.8
298.15 K, m1 = 0.3412	1061.56	1560.2
298.15 K, m1 = 0.4565	1081.54	1581.2
298.15 K, m1 = 0.5796	1101.81	1601.3
298.15 K, m1 = 0.7446	1128.11	1629.2
303.15 K, m1 = 0.0185	999.449	1513
303.15 K, m1 = 0.0304	1001.86	1515.4
303.15 K, m1 = 0.031	1001.97	1515.5
303.15 K, m1 = 0.0558	1006.81	1520.2
303.15 K, m1 = 0.0899	1013.52	1526.6
303.15 K, m1 = 0.1258	1020.35	1534.1
303.15 K, m1 = 0.1931	1033.03	1545.6
303.15 K, m1 = 0.2653	1046.31	1557.7
303.15 K, m1 = 0.3412	1059.82	1570.7
303.15 K, m1 = 0.4565	1079.71	1591.1
303.15 K, m1 = 0.5796	1099.9	1610.6
303.15 K, m1 = 0.7446	1126.1	1637.7
308.15 K, m1 = 0.0185	997.814	1523.6
308.15 K, m1 = 0.0304	1000.21	1525.9
308.15 K, m1 = 0.031	1000.32	1526.1
308.15 K, m1 = 0.0558	1005.14	1530.6
308.15 K, m1 = 0.0899	1011.81	1536.8
308.15 K, m1 = 0.1258	1018.62	1544.2
308.15 K, m1 = 0.1931	1031.24	1555.3
308.15 K, m1 = 0.2653	1044.46	1567.1
308.15 K, m1 = 0.3412	1057.91	1579.7
308.15 K, m1 = 0.4565	1077.72	1599.7
308.15 K, m1 = 0.5796	1097.85	1618.5
308.15 K, m1 = 0.7446	1123.97	1644.9
313.15 K, m1 = 0.0185	995.982	1532.7
313.15 K, m1 = 0.0304	998.37	1534.9
313.15 K, m1 = 0.031	998.478	1535
313.15 K, m1 = 0.0558	1003.28	1539.5
313.15 K, m1 = 0.0899	1009.92	1545.5
313.15 K, m1 = 0.1258	1016.7	1552.8
313.15 K, m1 = 0.1931	1029.28	1563.6
313.15 K, m1 = 0.2653	1042.44	1575
313.15 K, m1 = 0.3412	1055.86	1587.3
313.15 K, m1 = 0.4565	1075.6	1606.9
313.15 K, m1 = 0.5796	1095.67	1625.1
313.15 K, m1 = 0.7446	1121.72	1650.8
